Assay results published in PubChem BioAssay (NCI).
Values joined by “and” are separate entries in the source; they are usually repeats but may differ in a detail not shown here. Equal values may be shown once.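 Test compounds were applied to cells in 96-well plates for 48 hours at 5 doses. GI50: concentration for 50% inhibition of growth. TGI marks complete inhibition of growth.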

What was measured:
Experiment in all cases: NCI tumour cell line growth inhibition, 48 h
HCT-15 colon = system: HCT-15 colon
MDA-MB-435 = system: MDA-MB-435
PC-3 prostate = system: PC-3 prostate
M14 melanoma = system: M14 melanoma
NCI-H522 lung = system: NCI-H522 lung
HT29 colon = system: HT29 colon
U251 CNS = system: U251 CNS
SK-OV-3 ovarian = system: SK-OV-3 ovarian
SF-268 CNS = system: SF-268 CNS
NCI-H226 lung = system: NCI-H226 lung

SMILES	GI50 (HCT-15 colon) [µM]	TGI (HCT-15 colon)	GI50 (MDA-MB-435) [µM]	TGI (MDA-MB-435)	GI50 (PC-3 prostate) [µM]	TGI (PC-3 prostate) [µM]	GI50 (M14 melanoma)	TGI (M14 melanoma)	GI50 (NCI-H522 lung)	TGI (NCI-H522 lung)	TGI (HT29 colon)	GI50 (U251 CNS)	TGI (U251 CNS)	GI50 (SK-OV-3 ovarian)	TGI (SK-OV-3 ovarian)	GI50 (SF-268 CNS)	TGI (SF-268 CNS)	GI50 (NCI-H226 lung)	TGI (NCI-H226 lung)	GI50 (HT29 colon)
NC(=O)c1cc(S(=O)(=O)Nc2nnc(-c3ccccc3)c(-c3ccccc3)n2)c(SCc2ccccc2)cc1Cl	> 88.3	> 100 µM	> 53.4	> 100 µM	> 62.2	> 100	> 100 µM	> 100 µM	> 44 µM	> 68.3 µM	> 100 µM	> 55.6 µM	> 100 µM	> 74.7 µM	> 100 µM	> 87.5 µM	> 100 µM	> 46.9 µM	> 69.4 µM	
CC[C@H]1CN2CCc3cc(OC)c(OC)cc3[C@@H]2C[C@@H]1C[C@H]1NCCc2c1[nH]c1ccc(O)cc21	0.688	5.38 µM and 4.1 µM		0.261 µM	0.0345	0.814	0.0365 µM and 0.0275 µM	0.162 µM and 0.0729 µM and 0.0478 µM	0.00347 µM and 0.00354 µM	0.0164 µM and 0.0108 µM	0.0862 µM and 0.341 µM and 0.11 µM	0.0222 µM and 0.0255 µM	0.0702 µM and 0.075 µM and 0.154 µM	0.0348 µM and 0.0711 µM	0.142 µM and 0.431 µM and 0.529 µM	0.0315 µM and 0.0253 µM	0.0931 µM and 0.075 µM and 0.263 µM	0.0282 µM and 0.0409 µM	0.0778 µM and 0.261 µM and 0.0326 µM	0.0271 µM and 0.0332 µM
OCCCNc1nccc(-c2c(-c3ccc(F)cc3)nn3cc(C(F)(F)F)ccc23)n1	8.1	> 25 µM	10.1	> 25 µM	15.1	> 25	15.4 µM	> 25 µM	16.7 µM	> 25 µM	> 25 µM	19.3 µM	> 25 µM	13 µM	> 25 µM	16.3 µM	> 25 µM	9.49 µM	> 25 µM	7.73 µM
O=C(CSC1CCc2ccccc21)N/N=C/c1ccccc1O (stereo unspecified)	2.27	> 100 µM	5.87	> 100 µM	3.89	75.8	3.7 µM	63 µM	4.98 µM	26.4 µM	52.6 µM	2.92 µM	42.5 µM	11.5 µM	> 100 µM	3.33 µM	> 100 µM	3.11 µM	35.8 µM	18.3 µM
O=C1NC(=NCCc2cccc(Cl)c2)S/C1=C\c1ccc2ncccc2c1	1.08	> 25 µM	0.635	> 25 µM	> 25	> 25	> 25 µM	> 25 µM	> 25 µM	> 25 µM	> 25 µM	> 25 µM	> 25 µM	> 25 µM	> 25 µM	> 25 µM	> 25 µM	> 25 µM	> 25 µM	> 25 µM
COc1ccc(O)c(C(=O)c2ccc(C(=O)N[C@H]3CCCNC[C@@H]3NC(=O)c3ccncc3)cc2)c1F	> 25	> 25 µM	> 14.9	> 25 µM	> 21.6	> 25	6.43 µM	> 22.4 µM	7.69 µM	> 25 µM	> 25 µM	8.12 µM	> 25 µM	5.57 µM	> 25 µM	1.75 µM	> 20.6 µM	> 25 µM	> 25 µM	16.3 µM
C=C1C(=O)O[C@H]2[C@H]1CC/C(COC(=O)/C=C\C(=O)NCc1ccc(Cn3c(=O)sn(CCCC)c3=O)cc1)=C\CC[C@@]1(C)O[C@@H]21	0.202	0.467 µM	0.513	1.77 µM	0.868	2.34	0.678 µM	2.06 µM	0.315 µM	1.27 µM	2.07 µM	1.43 µM	3.2 µM	3.33 µM	8.55 µM	1.39 µM	2.78 µM	1.58 µM	3.39 µM	0.472 µM
CCOC(=O)c1c(NC(=O)c2cccc(C(F)(F)F)c2)sc2c(CN(C)C)c(O)ccc12	2.13	5.77 µM	3.15	12.9 µM	5.45	18.1	1.89 µM	3.53 µM	5.03 µM	28 µM	5.05 µM	2.21 µM	5.45 µM	19.1 µM	41.8 µM	4.69 µM	24.1 µM	16 µM	36.2 µM	2.21 µM
Cc1[nH]c(/C=C2\C(=O)Nc3ccccc32)c(C)c1CCC(=O)O		> 100 µM	23.5	84.2 µM and > 100 µM	31.4	> 100	17 µM	49.3 µM and 58.8 µM		> 100 µM	> 80.8 µM	38.1 µM	> 100 µM	19.5 µM	59.5 µM and 80.6 µM	25.1 µM	> 100 µM	15.2 µM	42.6 µM	27 µM
CCN1C(=O)N(CC)C2C1NN=c1s/c(=C3\C(=O)N(CC(C)(C)C)c4ccccc43)c(=O)n12 (stereo unspecified)	3.31	18.4 µM	1.54	7.1 µM	4.31	31.5	3.72 µM	20.7 µM	3.19 µM	18.5 µM	17 µM	4.13 µM	20.6 µM	10.7 µM	74.6 µM	4.8 µM	32.1 µM	5.71 µM	28.1 µM	3.6 µM
O=S(=O)(Nc1ccc(F)cc1F)c1ccc(-c2cnc(C3CC3)o2)cc1	0.37	46.7 µM	0.14	2.72 µM	0.897	> 50.1	0.376 µM	> 59.9 µM	0.347 µM	16 µM	15.2 µM	0.552 µM	26.8 µM	2.52 µM	61.6 µM	4.82 µM	> 70.4 µM	1.7 µM	43.3 µM	0.381 µM
NCCSc1nc(-c2ccccc2)c(-c2ccccc2)o1		> 100 µM		> 100 µM		> 100		> 100 µM		> 100 µM	> 100 µM		> 100 µM		> 100 µM		> 100 µM		> 100 µM	
O=C(Nc1ccc(-n2ccc3c(NC(=O)c4ccccc4)nccc32)cc1)Nc1ccc(Cl)c(Cl)c1	0.201	2.84 µM	1.31	2.81 µM	1.06	> 26.6	1.47 µM	2.93 µM	1.45 µM	3.7 µM	2.33 µM	0.373 µM	1.92 µM	1.2 µM	3.29 µM	1.26 µM	5.97 µM	15.9 µM	97.7 µM	0.664 µM
